Assays:
[1] = test system: Adult human dermal fibroblasts (HDF); assay: In-vitro fibroblast proliferation (BrdU incorporation); assay type: cell-based; conditions: for Fibroblast proliferation (Δ% vs. control): Table 2 summary; for proliferative stimulating effect (in words): same test and conditions as Example 1; for Δ % vs. control (proliferation) / Absorbance ± SD Treated: 72 h; for Absorbance ± SD Treated: BrdU, 450 nm
Method: Fibroblast proliferation: Adult human dermal fibroblasts (HDF) were appropriately grown, and were employed between 2nd and 6th passage. […] Twenty-four hours before end of incubation, the cells were labelled with Bromo deoxyuridine (BrdU, 10 μL/well) and its incorporation into DNA was evaluated measuring the absorbance of the samples in an ELISA reader at 450 nm. The proliferation rate of the fibroblasts was evaluated on the increase of the absorbance of the samples.

[2] = test system: testosterone propionate (TP) response; assay: Local antiandrogenic activity, flank organ test in hamster; assay type: in vivo; conditions: for Percent inhibition of testosterone propionate (TP) response: topical on flank organ; for Mean inhibition (%): mean over daily doses 100, 200, 400 μg + 4 μg TP
[3] = test system: Adult human dermal fibroblasts (HDF); assay: In-vitro effect on synthesis of type I procollagen (PIP ELISA); assay type: cell-based; conditions: for Procollagen I Synthesis (Δ% vs. control): Table 2 summary; for effect on synthesis of type I procollagen (in words): same test and conditions as Example 4; for Δ % vs. control (PIP) / PIP concentration: 48 h; for PIP concentration: supernatant
Method: Adult human dermal fibroblasts (HDF) were appropriately grown, and were employed between 2nd and 4th passage. […] After the incubation the supernatant were collected and dosed for the terminal peptide of type I procollagen (PIP) with ELISA kit. The measurement of PIP concentration in the culture medium is representative for the production of collagen type I. The results of type I procollagen concentration (PIP) are reported in the Table 6 below: […]

[4] = test system: Adult human dermal fibroblasts (HDF); assay: In-vitro effect on extra-cellular protein synthesis (Bradford); assay type: cell-based; conditions: for Protein synthesis (Δ% vs. control): Table 2 summary; for effect on extracellular protein synthesis (in words): same test and conditions as Example 3; for Δ % vs. control (protein concentration) / Protein concentration Treated: 72 h; for Protein concentration Treated: supernatant
Method: Adult human dermal fibroblasts (HDF) were appropriately grown, and were employed between 2nd and 6th passage. The fibroblasts, plated in a 24-wells plate at the density of 12×10^4 cells/mL (1 mL/well), were incubated for 72 hours with rhEGF (100 nM) as positive control, or with cortexolone 17α-propionate at concentration of 5 μM, 25 μM, 50 μM. After 72 h of incubation the supernatant were mixed with 1 mL of Bradford reagent and incubated for 45 minutes at room temperature. Each sample was then read in a spectrophotometer at 595 nm.

[5] = test system: Adult human dermal fibroblasts (HDF); assay: In-vitro fibroblast migration (image density); assay type: cell-based; conditions: for Image density 6 h: 6 h after insert removal; for Image density 24 h: 24 h after insert removal; for Image density t0: immediately after insert removal; for Δ (%) vs. vehicle (migration): increase t0-24 h
Method: Fibroblast migration: Adult human dermal fibroblasts (HDF) were appropriately grown, and were employed between 2nd and 6th passage. […] After incubation the culture-insert was removed and the cells were maintained in culture for further 24 hours. Immediately after insert removal, and at interval of 6 and 24 h, the plates were photographed by Digital Microscope Eyepiece. The entity of cell migration was measured using image analyzing software Image J, and was expressed as image density.

cutaneous wounds = assay: In vivo wound healing activity, repTOP mitoIRE mouse model; conditions: 250 mg/mouse topical
Method: The wound healing activity of the cortexolone 17α-propionate on cutaneous wounds was evaluated in an in vivo test foreseeing the use of repTOP™ mitoIRE mouse model. RepTOP™ mitoIRE mice from TOP® S.r.l. are engineered for the ubiquitous and proliferation-regulated expression of luciferase in proliferating tissues by embedding the transgene containing the minimal promoter of Cyclin B2d driving the firefly luciferase gene within HS4 insulator sequences.
Cortexolone 17α-propionate was dissolved in 0.4% (v/v) tween 80 and 0.5% (w/v) carboxymethylcellulose in normal saline.
The test was carried out comparing the wound healing activity of cortexolone 17α-propionate at two different dosages (50 mg/mouse and 250 mg/mouse) versus the vehicle (i.e. 0.4% (v/v) tween 80 and 0.5% (w/v) carboxymethylcellulose in normal saline) and versus a comparator, i.e. Cicatrene® cream (Johnson&Johnson®), a drug product used in wound management and wound healing.
Animal treatments. The repTOP™ mitoIRE mice were shaved by VEET® depilatory cream a day before the treatment. A round full-thickness wound of 0.4 cm^2 area was made through the dorsal skin and the panniculus carnosus muscle of repTOP™ mitoIRE by using skin biopsy devices (HS biopsy punch).
In vivo test. In order to establish the proliferative stimulating activity of cortexolone 17α-propionate, the vehicle (200 μl/mouse), cortexolone 17α-propionate (50 mg/mouse), cortexolone 17α-propionate (250 mg/mouse) and Cicatrene® (200 mg/mouse) were spread topically on the wound of repTOP™ mitoIRE mice (4 mice per group of treatment), immediately after the generation of the round punch. Photon-emission was measured in wound area at the following times: time 0 and 1, 2, 3 and 6 days after the treatment. A representation of the area of wound selected for the measurements is depicted in FIG. 1.
In vivo imaging. […] Photon emission in wound area was measured using the Living Image Software (Caliper™, a Perkin Elmer™ company) and expressed as photon/second/cm^2/steradian (p/s/cm^2/sr). The measurement of wound areas was expressed as cm^2.

[6] = daily dose 100 μg test compound + 4 μg TP
[7] = daily dose 200 μg test compound + 4 μg TP
[8] = daily dose 400 μg test compound + 4 μg TP

For `CCCC(=O)OCC(=O)[C@@]1(OC(=O)CCC)CC[C@H]2[C@@H]3CCC4=CC(=O)CC[C@]4(C)[C@H]3CC[C@@]21C` [Cortexolone 17α,21-dibutyrate, cortexolone 17α,21-dibutyrate], the “Fibroblast proliferation (Δ% vs. control)” value ([1]; 50 μM) was 9.6%, the “proliferative stimulating effect (in words)” value [1] was “did not show any proliferative stimulating effect” and the “Percent inhibition of testosterone propionate (TP) response” value (“Percent inhibition” for short) [2, 6] was 84%. The “Percent inhibition” value [2, 7] was 89%, the “Percent inhibition” value [2, 8] was 97% and the “Mean inhibition (%)” value [2] was 90%. The “Procollagen I Synthesis (Δ% vs. control)” value ([3]; 50 μM) was −2.8%, the “effect on synthesis of type I procollagen (in words)” value [3] was “did not show any effect in increasing the synthesis of type I procollagen” and the “Protein synthesis (Δ% vs. control)” value ([4]; 50 μM) was 0.6%. The “effect on extracellular protein synthesis (in words)” value [4] was “did not show any effect in increasing the extracellular protein synthesis”.
For `CCC(=O)O[C@]1(C(=O)CO)CC[C@H]2[C@@H]3CCC4=CC(=O)CC[C@]4(C)[C@H]3CC[C@@]21C` [Cortexolone 17α-propionate, cortexolone 17α-propionate], the “Δ % vs. control (proliferation)” value ([1]; 1 μM) was −0.95%, the “Absorbance ± SD Treated” value ([1]; 1 μM) was 2.06 ± 0.15 and the “Δ % vs. control (proliferation)” value ([1]; 5 μM) was 6.71%. For the same compound, the “Absorbance ± SD Treated” value ([1]; 5 μM) was 2.05 ± 0.24, the “Δ % vs. control (proliferation)” value ([1]; 25 μM) was 7.00% and the “Absorbance ± SD Treated” value ([1]; 25 μM) was 2.09 ± 0.19. For the same compound, the “Δ % vs. control (proliferation)” value ([1]; 50 μM) was 30.98%, the “Absorbance ± SD Treated” value ([1]; 50 μM) was 2.48 ± 0.23 and the “Fibroblast proliferation (Δ% vs. control)” value ([1]; 50 μM) was 31.0%. The “Percent inhibition” value [2, 6] was 62%, the “Percent inhibition” value [2, 7] was 69% and the “Percent inhibition” value [2, 8] was 86%. The “Mean inhibition (%)” value [2] was 72%, the “Increase from t0 − 24 h (image density)” value ([5]; 10 μM) was 35.2 and the “Image density 6 h” value ([5]; 10 μM) was 24.0 ± 2.4. The “Image density 24 h” value ([5]; 10 μM) was 54.5 ± 2.5, the “Image density t0” value ([5]; 10 μM) was 19.3 ± 0.8 and the “Δ (%) vs. vehicle (migration)” value ([5]; 10 μM) was 30.3%. For the same compound, the “Increase from t0 − 24 h (image density)” value ([5]; 50 μM) was 44.0, the “Image density 6 h” value ([5]; 50 μM) was 25.1 ± 1.2 and the “Image density 24 h” value ([5]; 50 μM) was 64.1 ± 5.6. For the same compound, the “Image density t0” value ([5]; 50 μM) was 20.1 ± 2.0, the “Δ (%) vs. vehicle (migration)” value ([5]; 50 μM) was 62.9% and the “Δ % vs. control (PIP)” value ([3]; 10 μM) was −8.27%. The PIP concentration ([3]; 10 μM) was 949.50 ± 149.81 ng/mL, the “Δ % vs. control (PIP)” value ([3]; 50 μM) was 199.59% and the PIP concentration ([3]; 50 μM) was 3100.98 ± 152.59 ng/mL. For the same compound, the “Procollagen I Synthesis (Δ% vs. control)” value ([3]; 50 μM) was 199.6%, the “time of maximum increase of proliferative cells after administration” value (cutaneous wounds) was 3 days and the “mean reduction in wound area” value (cutaneous wounds; after 3 days from administration) was 26%. The “increase of photon-emission from wounds with respect to time 0” value (cutaneous wounds; time 3 days) was 143%, the “Δ % vs. control (protein concentration)” value ([4]; 5 μM) was 0% and the “Protein concentration Treated” value ([4]; 5 μM) was 0.5 ± 0.056 mg/mL. For the same compound, the “Δ % vs. control (protein concentration)” value ([4]; 25 μM) was 12.18%, the “Protein concentration Treated” value ([4]; 25 μM) was 0.884 ± 0.028 mg/mL and the “Δ % vs. control (protein concentration)” value ([4]; 50 μM) was 27.41%. For the same compound, the “Protein concentration Treated” value ([4]; 50 μM) was 0.846 ± 0.087 mg/mL and the “Protein synthesis (Δ% vs. control)” value ([4]; 50 μM) was 27.4%.
`CCCCC(=O)O[C@]1(C(=O)CO)CC[C@H]2[C@@H]3CCC4=CC(=O)CC[C@]4(C)[C@H]3CC[C@@]21C` [Cortexolone 17α-valerate, cortexolone 17α-valerate] was tested, and the “Fibroblast proliferation (Δ% vs. control)” value ([1]; 50 μM) was −33.8%, the “proliferative stimulating effect (in words)” value [1] was “did not show any proliferative stimulating effect” and the “Percent inhibition” value [2, 6] was 66%. The “Percent inhibition” value [2, 7] was 65%, the “Percent inhibition” value [2, 8] was 73% and the “Mean inhibition (%)” value [2] was 68%. The “Procollagen I Synthesis (Δ% vs. control)” value ([3]; 50 μM) was −14.6%, the “effect on synthesis of type I procollagen (in words)” value [3] was “did not show any effect in increasing the synthesis of type I procollagen” and the “Protein synthesis (Δ% vs. control)” value ([4]; 50 μM) was −3.8%. For the same compound, the “effect on extracellular protein synthesis (in words)” value [4] was “did not show any effect in increasing the extracellular protein synthesis”.
`C[C@]12CCC(=O)C=C1CC[C@@H]1[C@@H]2[C@@H](O)C[C@@]2(C)[C@H]1CC[C@]2(O)C(=O)CO` [Cortisol, cortisol, reference compound] was tested, and the “Δ % vs. control (proliferation)” value ([1]; 50 μM) was −56.84%, the “Increase from t0 − 24 h (image density)” value ([5]; 50 μM) was 34.4 and the “Image density 6 h” value ([5]; 50 μM) was 22.9 ± 2.7. For the same compound, the “Image density 24 h” value ([5]; 50 μM) was 56.6 ± 4.4, the “Image density t0” value ([5]; 50 μM) was 22.2 ± 3.2 and the “Δ (%) vs. vehicle (migration)” value ([5]; 50 μM) was 27.4%. The “Δ % vs. control (PIP)” value ([3]; 50 μM) was −74.94% and the PIP concentration ([3]; 50 μM) was 259.36 ng/mL.
For `O=C1O[C@H]([C@@H](O)CO)C(O)=C1O` [Vit. C, L-Ascorbic acid], the “Δ % vs. control (PIP)” value ([3]; 0.2 mM) was 260.87% and the PIP concentration ([3]; 0.2 mM) was 3735.27 ± 515.52 ng/mL.
“rhEGF: recombinant human Epidermal Growth Factor, known fibroblast proliferation promoter, positive control” was tested, and the “Δ % vs. control (proliferation)” value ([1]; 100 nM) was 49.49%, the “Absorbance ± SD Treated” value ([1]; 100 nM) was 2.72 ± 0.22 and the “Increase from t0 − 24 h (image density)” value ([5]; 100 nM) was 43.6. For the same compound, the “Image density 6 h” value ([5]; 100 nM) was 21.6 ± 1.0, the “Image density 24 h” value ([5]; 100 nM) was 65.7 ± 4.2 and the “Image density t0” value ([5]; 100 nM) was 22.1 ± 2.9. The “Δ (%) vs. vehicle (migration)” value ([5]; 100 nM) was 61.5%, the “Δ % vs. control (protein concentration)” value ([4]; 100 nM) was 49.54% and the “Protein concentration Treated” value ([4]; 100 nM) was 0.978 ± 0.074 mg/mL.
